T/C data for 20 compounds are collected here from PubChem BioAssay AID332 (DTP/NCI, 2004).

Several values for one entry are separate records, joined by “and”; a condition that tells them apart may be missing. Equal entries are not always repeated. Records with an inconclusive call do not appear. Numbered stars: 1 amine (or outer) side, 2 acyl side, 3 side chain; on linkers, the order of the positions; unused ones are H or OH. Bridge positions count the residues as written; N and C are the ends. Square brackets hold non-standard residues; d marks the D form. Peptide text beside a SMILES is read from it. I, II: the chains in the order shown. Actinocin(9to1) = Cc1c2oc3c(C)ccc(C(=O)[*:1])c3nc-2c(C(=O)[*:2])c(N)c1=O; aThr = C[C@H](O)[C@H](N)C(=O)O; NMeV = CN[C@H](C(=O)O)C(C)C; Sar = CNCC(=O)O

The subject of this test is mice, ADJ-PC-20 plasma cell tumor sc, T/C %. The test can be described thus: NCI In Vivo Anticancer Drug Screen. Data for tumor model ADJ-PC-20 Plasma Cell (subcutaneous) in unknown mice. Conditions: endpoint: mean tumor weight, higher = larger tumour. Here is the method: The antitumor activity of compounds was measured in mice bearing transplantable tumors. Survival or tumor size were measured and the results are expressed as the measurement made in the treated group (T) divided by the measurement made in the vehicle treated control group (C). The tumor model used in this assay is ADJ-PC-20 Plasma Cell (subcutaneous) in unknown mice

Setting [1] is: dose: 31.25 mg/kg/injection, schedule: Q01DX010 (sc), vehicle: steriod suspending solution.
Setting [2] is: dose: 62.5 mg/kg/injection, schedule: Q01DX010 (sc), vehicle: steriod suspending solution.
The mark [3] stands for this setting: dose: 4.0 mg/kg/injection, schedule: Q01DX010 (ip), vehicle: carboxymethylcellulose (CMC).
The mark [4] stands for this setting: dose: 8.0 mg/kg/injection, schedule: Q01DX010 (ip), vehicle: carboxymethylcellulose (CMC).
The mark [5] stands for this setting: dose: 6.3 mg/kg/injection, schedule: Q01DX010 (ip), vehicle: carboxymethylcellulose (CMC).
Setting [6] is: dose: 12.5 mg/kg/injection, schedule: Q01DX010 (ip), vehicle: carboxymethylcellulose (CMC).
[7] abbreviates: dose: 25.0 mg/kg/injection, schedule: Q01DX010 (ip), vehicle: carboxymethylcellulose (CMC).
Where [8] appears, read: dose: 50.0 mg/kg/injection, schedule: Q01DX010 (ip), vehicle: carboxymethylcellulose (CMC).
Setting [9] is: dose: 100.0 mg/kg/injection, schedule: Q01DX010 (ip), vehicle: carboxymethylcellulose (CMC).
The mark [10] stands for this setting: dose: 200.0 mg/kg/injection, schedule: Q01DX010 (ip), vehicle: carboxymethylcellulose (CMC).
Setting [11] is: dose: 3.1 mg/kg/injection, schedule: Q01DX010 (ip), vehicle: carboxymethylcellulose (CMC).

As to `O=C(Nc1ccc(NC2=NCCN2)cc1)c1ccc(C(=O)Nc2ccc(NC3=NCCN3)cc2)cc1`, the T/C is, setting by setting: (dose: 4.0 mg/kg/injection, schedule: Q01DX010 (ip), vehicle: saline) 98 % of control; (dose: 8.0 mg/kg/injection, schedule: Q01DX010 (ip), vehicle: saline) 69 % of control.

For the compound `CC[C@H](c1ccc(O)cc1)[C@@H](CC)c1ccc(O)cc1`, the T/C by setting is: under setting [1], 185 % of control; under setting [2], 180 % of control.

`N=C(N)SCc1c2ccccc2c(CSC(=N)N)c2ccccc12`: the T/C is 119 % of control (dose: 10.0 mg/kg/injection, schedule: Q01DX010 (ip), vehicle: carboxymethylcellulose (CMC)) and 55 % of control (dose: 20.0 mg/kg/injection, schedule: Q01DX010 (ip), vehicle: carboxymethylcellulose (CMC)).

Regarding `CCCSc1ncnc2nc[nH]c12`, the T/C under setting [3] was 81 % of control; the T/C under setting [4] is 43 % of control; the T/C (dose: 16.0 mg/kg/injection, schedule: Q01DX010 (ip), vehicle: carboxymethylcellulose (CMC)) is 28 % of control.

For `Cn1c(N)nc2nc[nH]c2c1=S`, the T/C runs as follows: under setting [5], 118 % of control; under setting [6], 105 % of control; under setting [7], 116 % of control; under setting [8], 98 % of control; under setting [9], 76 % of control.

For the compound `O=NN(CCCl)C(=O)NCCCl`, the T/C is, setting by setting: (dose: 0.8 mg/kg/injection, schedule: Q01DX010 (ip), vehicle: saline) 102 % of control; (dose: 1.6 mg/kg/injection, schedule: Q01DX010 (ip), vehicle: saline) 87 % of control; (dose: 6.2 mg/kg/injection, schedule: Q01DX010 (ip), vehicle: saline) 48 % of control.

In the case of `O=C(Nc1ccc(C2=NCCN2)cc1)c1ccc(C(=O)Nc2ccc(C3=NCCN3)cc2)cc1`, the T/C under setting [7] is 73 % of control, the T/C under setting [8] is 78 % of control, the T/C under setting [9] was 60 % of control and the T/C under setting [10] is 71 % of control.

As to `CC(=O)N(C)C`, the T/C (dose: 250.0 mg/kg/injection, schedule: Q01DX010 (ip), vehicle: saline) was 60 % of control; the T/C (dose: 500.0 mg/kg/injection, schedule: Q01DX010 (ip), vehicle: saline) was 75 % of control; the T/C (dose: 1000.0 mg/kg/injection, schedule: Q01DX010 (ip), vehicle: saline) is 51 % of control.

For `C[C@@H]1C[C@H]2CC[C@H](O2)[C@H](C)C(=O)O[C@@H](C)C[C@@H]2CC[C@@H](O2)[C@@H](C)C(=O)O[C@H](C)C[C@H]2CC[C@H](O2)[C@H](C)C(=O)O[C@@H](C)C[C@@H]2CC[C@@H](O2)[C@@H](C)C(=O)O1`, the T/C was 110 % of control under setting [8], 120 % of control under setting [9] and 99 % of control under setting [10].

As to `OCC1OC(n2cnc3c(=S)nc[nH]c32)C(O)C1O` (stereo not given), the T/C runs as follows: (dose: 0.5 mg/kg/injection, schedule: Q01DX010 (ip), vehicle: carboxymethylcellulose (CMC)) 87 % of control; (dose: 1.0 mg/kg/injection, schedule: Q01DX010 (ip), vehicle: carboxymethylcellulose (CMC)) 51 % of control; (dose: 2.0 mg/kg/injection, schedule: Q01DX010 (ip), vehicle: carboxymethylcellulose (CMC)) 25 % of control; under setting [3], 2 % of control; under setting [4], 22 % of control.

As to `CCCCn1cnc2c(=S)nc[nH]c21`, the T/C (dose: 0.8 mg/kg/injection, schedule: Q01DX010 (ip), vehicle: carboxymethylcellulose (CMC)) is 74 % of control; the T/C (dose: 1.6 mg/kg/injection, schedule: Q01DX010 (ip), vehicle: carboxymethylcellulose (CMC)) was 68 % of control; the T/C under setting [11] was 52 % of control; the T/C under setting [5] is 41 % of control; the T/C under setting [6] is 15 % of control; the T/C under setting [7] is 1 % of control.

Consider `O=C(Nc1ccc(C2=NCCCN2)cc1)c1ccc(C(=O)Nc2ccc(C3=NCCCN3)cc2)cc1`, for which the T/C by setting is: (dose: 0.05 mg/kg/injection, schedule: Q01DX010 (ip), vehicle: water) 90 % of control; (dose: 0.1 mg/kg/injection, schedule: Q01DX010 (ip), vehicle: water) 83 % of control; (dose: 0.2 mg/kg/injection, schedule: Q01DX010 (ip), vehicle: water) 109 % of control; (dose: 0.4 mg/kg/injection, schedule: Q01DX010 (ip), vehicle: water) 91 % of control and 92 % of control; (dose: 3.12 mg/kg/injection, schedule: Q01DX010 (ip), vehicle: saline) 65 % of control.

Consider `N=C(N)c1ccc(Nc2ccc(C(=N)N)cc2)cc1`, for which the T/C is 116 % of control (dose: 6.25 mg/kg/injection, schedule: Q01DX010 (ip), vehicle: methylcellulose (MC)) and 105 % of control (dose: 12.5 mg/kg/injection, schedule: Q01DX010 (ip), vehicle: methylcellulose (MC)).

On to `C[C@]12CCC(=O)C=C1CC[C@@H]1[C@@H]2CC[C@@]2(C)[C@H]1CC[C@]2(C)O`, for which the T/C runs as follows: under setting [1], 113 % of control; under setting [2], 114 % of control; (dose: 125.0 mg/kg/injection, schedule: Q01DX010 (sc), vehicle: steriod suspending solution) 99 % of control.

For the compound `COS(C)(=O)=O`, the T/C (dose: 25.0 mg/kg/injection, schedule: Q01DX010 (ip), vehicle: water) is 110 % of control; the T/C (dose: 50.0 mg/kg/injection, schedule: Q01DX010 (ip), vehicle: water) is 82 % of control; the T/C (dose: 100.0 mg/kg/injection, schedule: Q01DX010 (ip), vehicle: water) is 42 % of control.

Consider `S=P(N1CCOCC1)(N1CC1)N1CC1`, for which the T/C by setting is: under setting [11], 88 % of control and 100 % of control; under setting [5], 116 % of control; under setting [6], 1 % of control.

As to `S=c1nc[nH]c2nc[nH]c12`, the T/C is, setting by setting: (dose: 3.1 mg/kg/injection, schedule: Q01DX010 (ip), vehicle: other) 28 % of control; (dose: 6.2 mg/kg/injection, schedule: Q01DX010 (ip), vehicle: other) 16 % of control; (dose: 6.25 mg/kg/injection, schedule: Q01DX010 (ip), vehicle: other) 19 % of control; (dose: 6.25 mg/kg/injection, schedule: Q01DX011 (ip), vehicle: other) 7 % of control; (dose: 12.5 mg/kg/injection, schedule: Q01DX010 (ip), vehicle: other) 18 % of control; (dose: 12.5 mg/kg/injection, schedule: Q01DX011 (ip), vehicle: other) 4 % of control. Also, the T/C by setting is: (dose: 25.0 mg/kg/injection, schedule: Q01DX010 (ip), vehicle: other) 9 % of control and 10 % of control; (dose: 25.0 mg/kg/injection, schedule: Q01DX011 (ip), vehicle: other) 5 % of control; (dose: 50.0 mg/kg/injection, schedule: Q01DX011 (ip), vehicle: other) 7 % of control.

As for `O=c1[nH]c(=O)n(C2CC(O)C(CO)O2)cc1F` (stereo not given), the T/C reads like this: under setting [7], 67 % of control; under setting [8], 21 % of control; under setting [9], 36 % of control.

Turning to `Cc1c2oc3c(C)ccc(C(=O)N[C@@H]4C(=O)N[C@H](C(C)C)C(=O)N5CCC[C@H]5C(=O)N(C)CC(=O)N(C)[C@@H](C(C)C)C(=O)O[C@H]4C)c3nc-2c(C(=O)N[C@@H]2C(=O)N[C@H](C(C)C)C(=O)N3CCC[C@H]3C(=O)N(C)CC(=O)N(C)[C@@H](C(C)C)C(=O)O[C@H]2C)c(N)c1=O` (I: [aThr][dV]P[Sar][NMeV] / II: [aThr][dV]P[Sar][NMeV]; ester I:1-I:C, II:1-II:C; linker I:N-II:N via Actinocin(9to1)), the T/C is 161 % of control (dose: 4.7 micrograms/kg/injection, schedule: Q01DX010 (ip), vehicle: saline); 193 % of control (dose: 6.2 micrograms/kg/injection, schedule: Q01DX010 (ip), vehicle: saline); 87 % of control (dose: 9.4 micrograms/kg/injection, schedule: Q01DX010 (ip), vehicle: saline); 93 % of control (dose: 12.5 micrograms/kg/injection, schedule: Q01DX010 (ip), vehicle: saline).

With `O[C@H](CN1CC1)[C@@H](O)CN1CC1`, the T/C is, setting by setting: (dose: 0.25 mg/kg/injection, schedule: Q01DX010 (ip), vehicle: carboxymethylcellulose (CMC)) 25 % of control; (dose: 16.0 micrograms/kg/injection, schedule: Q01DX010 (ip), vehicle: carboxymethylcellulose (CMC)) 103 % of control; (dose: 31.0 micrograms/kg/injection, schedule: Q01DX010 (ip), vehicle: carboxymethylcellulose (CMC)) 151 % of control; (dose: 63.0 micrograms/kg/injection, schedule: Q01DX010 (ip), vehicle: carboxymethylcellulose (CMC)) 55 % of control; (dose: 125.0 micrograms/kg/injection, schedule: Q01DX010 (ip), vehicle: carboxymethylcellulose (CMC)) 66 % of control.
